The values that follow come from patent US20070105810A1, “THERAPEUTICS” (priority 2003, published 2007).

“Also recorded” adds a separate entry of the source. Counter-ions that a name gives are not always drawn.

Data set [1] deals with transfer experimental autoimmune encephalomyelitis (EAE) in Lewis rats. Put plainly: Transfer experimental autoimmune encephalomyelitis (EAE). The class given is in vivo, Lewis rat. The conditions noted are these: 50 μmol/100 g body weight i.p. twice per day; day 3.5 to day 6. From the text: Transfer of MBP-specific CD4-positive T cells was used at day 0 to induce experimental autoimmune encephalomyelitis (EAE) in Lewis rats. Animals injected with PBS (vehicle) or nicotinic acid (control compound with structural similarities to BZ52) developed severe paralysis of tail and rear legs due to the inflammation. Clinical symptoms started day 3.5 and reached their maxima day 4 to 6 (or 6.5). Between day 3.5 and day 6, no difference between PBS and nicotinic acid was observed, whereas a beneficial effect of BZ52 was visible (FIG. 14).
Animals (6 per group, body weight approx. 150 g) were injected i.p. twice per day with either PBS (vehicle control), nicotinic acid (50 μmol/100 g body weight), or BZ 52 (50 μmol/100 g body weight). Clinical scores indicate the degree of paralysis of tail and legs. Data are presented as mean±SD from one representative experiment (n=6).
Animals (6 per group, body weight approx. 150 g) were injected i.p. twice per day with either PBS (vehicle control), nicotinic acid (50 μmol/100 g body weight), or BZ 52 (50 μmol/100 g body weight). […] Data are presented as mean±SD from one representative experiment (n=6).
5×10^6 activated MBP specific-GFP Tcells were transferred i.v. into recipient Lewis rats. Clinical EAE was graded in five scores: 0.5, loss of tail tonus; 1, tail paralysis; 2, gait disturbance; 3, hind limb paralysis; 4, tetraparesis; 5, death.
Animals' weight was measured twice a day.
In order to analyze the effect of BZ194 on encephalitogenic T cells during the effector phase of EAE we used retrovirally transduced MBP-specific T cells expressing the marker gene green fluorescent protein (TMBP-GFP cells).
Animals were treated for 5 d intraperitoneally with 500 μmol BZ194 or vehicle (DMSO).

A further data set relates to NAADP binding site. Put plainly: [32P]NAADP binding to sea urchin egg homogenate. The protocol: [^32P]NAADP binding to 0.5% sea urchin egg homogenate.
Competitive CMA008 (1-Carbamoylmethyl-3-carboxy-pyridinium iodide) displacement of [^32P]NAADP (0.2 nM). Samples diluted in GluIM (intracellular medium), pre-incubated with indicated concentration of CMA008 for 10 minutes, then 0.2 nM [^32P]NAADP added and incubated at room temperature for a further 15 mins. Samples filtered through Whatman GF/B filters to separate bound and free [^32P]NAADP ligand. Non specific binding is defined by incubation of the homogenate in the presence of 10 μM NAADP. n=2. Data expressed as a fraction of total binding.
2.5% sea urchin egg homogenate was diluted into GluIM pre-incubated with indicated concentration of CMA008 for 10 minutes at room temperature (A=100 nM, B=1 nM, C=10 μM). Subsequently, [^32P]NAADP was added and samples incubated for a further 15 minutes at room temperature. Samples were filtered through Whatman GF/B filters to separate bound and free [^32P]NAADP ligand.

For data set [2], the system named is calcium mobilization by IP3. Put plainly: Calcium mobilization by IP3 in sea urchin egg homogenate. It counts as biochemical. Here is the method: (§1) Samples diluted to 2.5% in GluIM in the presence of regenerating system and kept at 17° C. with agitation for 3 hours to facilitate calcium uptake into stores. Calcium release was determined by measuring increase in Fluo-3 fluorescence at 526 nm. Data expressed as % of 250 nM NAADP calcium release in the absence of CMA008 (1-Carbamoylmethyl-3-carboxy-pyridinium iodide). […] CMA008 has no effect on the total calcium mobilization by IP3 or cADPR (insert) indicating the selectivity of this compound on the NAADP-sensitive release mechanism.
(§2) • Subcellular fractions: calcium concentrations are measured with fluo-3 (3 μM) at physiological temperatures, using cell homogenates or subcellular fractions in a fluorimeter (Perkin-Elmer LS-50B) at 506 nm excitation and 526 nm emission. • Intact cells: Injected or hydrolysed ester derivatives of calcium sensitive dye are imaged in intact cells by laser-scanning confocal microscopy (TCS NT, Leica) Images were processed with the software NIH Image to create a self-ratio by dividing each image (F) by an image acquired before stimulation (Fo). [drawing 13] wherein R1, R2 and R3 are as defined herein. I Preparation of Nicotinic Acid Derivatives [drawing 14]
(In general: Calcium assays in cells follow changes in intracellular calcium, usually with a dye or a luminescent sensor.)

The subject of data set [3] is calcium mobilization by cADPR. Nature of the data set: Calcium mobilization by cADPR in sea urchin egg homogenate. It counts as biochemical. The protocol:
as §1, §2

The subject of data set [4] is NAADP-sensitive release mechanism. Put plainly: NAADP-mediated calcium release in sea urchin egg homogenate (Fluo-3). It counts as biochemical. Conditions: 250 nM NAADP, 2.5% homogenate, read-out: IC50, inhibition of NAADP calcium mobilization. Here is the method: as §1, §2
The test system of another data set is pancreatic acinar cells. Put plainly: CCK-induced oscillations of Ca2+ in pancreatic acinar cells. The class given is cell-based, mouse. The conditions noted are these: for CCK-evoked calcium spiking/oscillations: external application, 1 mM, pre- and post-applied with respect to CCK (5 pM). The protocol:
Pancreatic acinar cells were seeded onto poly-lysine-coated number 1 glass coverslips and loaded by incubating cells with 1-5 μM fura-2 acetoxymethylester (Molecular Probes; Leiden, Holland) for 60 min at room temperature. After the loading period, cells were subsequently washed and maintained in buffer at room temperature and used immediately. Cells were excited alternately with 340 and 380 nm light (emission 510 nm), and ratio image of clusters were recorded every 4-5 s, using a 12-bit CCD camera (MicroMax; Princeton Instruments, NJ). All experiment were conducted at room temperature. CMA008 (1-Carbamoylmethyl-3-carboxy-pyridinium iodide) is dissolved in 50% DMSO. Final concentration of DMSO is 0.5% in the solution (composition in mM: 140 NaCl, 4.7 KCl, 1 CaCl2, 1.13 MgCl2, 10 HEPES, 10 Glucose, pH adjusted to 7.2)
Pancreatic acinar cells were isolated from mice and dispersed by collagenase treatment. Cells were incubated with fura-2 AM for 30 min and washed before being imaged on a Metafluor system. The cells were alternately excited at 340/380 nm and emitted light collected at around 510 nm. The ratio of the intensities of emitted light at the two excitation wavelengths were calculated, converted to free calcium concentrations, and plotted again time.
Pancreatic acinar cells were seeded onto poly-lysine-coated number 1 glass coverslips and loaded with calcium indicator by incubating cells with […] fura-2 acetoxymethylester (Molecular Probes; Leiden, Holland) for 60 min at room temperature. After the loading period, cells were subsequently washed and maintained in buffer at room temperature and used immediately. Cells were excited alternately with 340 and 380 nm light (emission 510 nm), and ratio image of clusters 5 were recorded every 4-5 s, using a 12-bit CCD camera (MicroMax; Princeton Instruments, NJ).
All experiments were conducted at room temperature. CMA008 (1-Carbamoylmethyl-3-carboxy-pyridinium iodide) was dissolved in 50% DMSO. Final concentration of DMSO was 0.5% in the solution (composition in mM: 140 NaCl, 4.7 KCl, 1 CaCl2, 1.13 MgCl2, 10 HEPES, 10 Glucose, pH adjusted to 7.2). The inhibition of CCK-evoked calcium spiking, both pre- and post-applied with respect to CCK (5 pM), was consistent with inhibition of NAADP-induced calcium release by CMA008 (1 mM). The biological data for these experiments is presented in FIG. 7 (see also the description of the figures above).

Data set [5] relates to NAADP-induced calcium release in intact sea urchin eggs. Nature of the data set: Calcium release on photolysis of caged NAADP in intact sea urchin eggs. It counts as cell-based, Lytechinus pictus. From the text: Sea urchin eggs were microinjected with a solution containing the calcium reporter dye, calcium green dextran, together with caged NAADP. Fluorescence was then imaged on a Leica confocal microscope using an excitation wavelength of 488 nm. In the control egg [see FIG. 6 A] a brief UV flash photolysed a proportion of the caged NAADP and evoked a large calcium transient.
Sea urchin eggs of Lytechinus pictus were obtained by intracoelomic injection of 0.5 M KCl shed into artificial sea water (in mM, NaCl 435, MgCl2 40, MgSO4 15, CaCl2 11, KCl 10, NaHCO3 2.5, EDTA 1), dejellied by passing through […] nylon mesh, and then washed twice by centrifugation. Eggs were transferred to polylysine-coated glass coverslips for microinjection and microscopy. Oregon Green 488 BAPTA (1,2-bis(2-aminophenoxy)ethane-N,N,N9,N9-tetraacetic acid dextran; Molecular Probes) was pressure-microinjected (Picospritzer; World Precision Instruments). The calcium-sensitive dye was imaged by laser-scanning confocal microscopy (Leica model TCS NT) using the 488-nm line of an argon ion laser for excitation, and the emission was long passfiltered (515 nm) and detected with a photomultiplier tube. Caged NAADP (^29P-(1-(2-nitrophenyl)ethyl) NAADP; Molecular Probes) was purified further by high performance liquid chromatography to remove small amounts of contaminating free NAADP. […]

What is called melting point is the temperature, or range, at which the solid turns liquid. `COC(=O)c1ccc[n+](CCCC#N)c1` (as salt: iodide): the melting point was in the range of 167 to 170 °C.

Molecule `O=C(O)c1ccc[n+](Cc2ccccc2)c1` (as salt: bromide) displayed a melting point of 203 to 205 °C.

The molecule `CCN(CC)C(=O)C[n+]1cccc(C(=O)O)c1` (as salt: iodide) [Example 10, 3-Carboxy-1-diethylcarbamoylmethyl-pyridinium; iodide] came in with a melting point of 97 to 100 °C.

Take `NC(=O)CC[n+]1cccc(C(=O)O)c1` (as salt: iodide) [Example 11, 1-(2-Carbamoyl-ethyl)-3-carboxy-pyridinium; iodide]: the melting point is 170 to 173 °C.

Take `O=C(O)c1cccnc1` [nicotinic acid, reference compound]: the “clinical symptoms (clinical score) vs PBS” value in data set [1] is given as “no difference”. The “effect on [32P]NAADP binding to egg membranes” value in the data set on NAADP binding site (up to 1 mM, 0.2 nM [32P]NAADP, 0.5% homogenate) was “without effect”.

The molecule `CCN(CC)CC[n+]1cccc(C(=O)OC)c1` (as salt: iodide) showed a melting point of 172 to 174 °C.

For `CCN(CC)C(=O)C[n+]1cccc(C(=O)OC)c1` (as salt: iodide), the melting point is 163 to 165 °C.

As a reminder, the IC50 is the concentration that gives 50% inhibition. For `NC(=O)C[n+]1cccc(C(=O)O)c1` [CMA008, 1-Carbamoylmethyl-3-carboxy-pyridinium iodide], the “effect on total calcium mobilization by IP3” value in data set [2] is “no effect”. In data set [3], the “effect on total calcium mobilization by cADPR” value was “no effect”. Moreover, in data set [4], the IC50 stood at 15.1 µM. Moreover, the CCK-evoked calcium spiking entry in the data set with pancreatic acinar cells (CMA008 1 mM added post-CCK (5 pM)) is given as “inhibition”. Besides, the resting calcium levels result with pancreatic acinar cells (CMA008 1 mM added pre-CCK) was “no apparent effect”. For the same molecule, the “response to CCK” value with pancreatic acinar cells (CMA008 1 mM added pre-CCK (5 pM)) is “a much smaller response to CCK was seen, with a greatly reduced frequency”. The CCK-evoked calcium spiking/oscillations entry was “inhibition” with pancreatic acinar cells and “inhibited or reduced” in the data set with pancreatic acinar cells (listed as CM008). The “effect on the Bmax” value with NAADP binding site (1 nM and 100 nM CMA008) is given as “no effect”. Also, in the data set with NAADP binding site (in the presence of 10 μM CMA008, 2.5% homogenate, 68.65%±2.7 in its absence), the “Bmax (total specific binding of [32P]NAADP)” value is recorded as 46.28%±2.61. Further, the “calcium release on photolysis of caged NAADP” value in data set [5] (CMA008 10 mM applied externally in sea water, NPE-NAADP 1 μM) is on record as “blocks; also recorded: failed to induce”. For the same molecule, in data set [5] (inferred from activity of compound applied outside the cell), the cell membrane permeation entry was “permeates the cell membrane”.

The molecule `CCC[n+]1cccc(C(=O)O)c1` (as salt: iodide) yielded a melting point of 162 to 165 °C.

On to `COC(=O)c1ccc[n+](CCC(N)=O)c1` (as salt: iodide), for which the melting point is 98 to 100 °C.
